# Source: patent US9518041B2, “(+)-5-(3,4-difluorophenyl)-5-[(3-methyl-2-oxopyridin-1(2H)-yl)methyl]imidazolidine-2,4-dione and drug containing same” (KAKEN PHARMACEUTICAL CO., LTD., priority 2013, dated 2016)
# How the values were obtained:
# human MMP-8 = target: T1, human MMP-8 (Homo sapiens, UniProt P22894); assay: MMP-8 inhibition test; format: biochemical; conditions: read-out: Inhibitory activity (IC50, nM) MMP-8
# T1 construct: purchased Calbiochem 444229
# Experimental: (§1) MMP inhibition tests can be carried out, for example, using a fluorescent synthetic substrate based on the methods described in Bickett et al. (D. Mark Bickett et al., Anal. Biochem., 1993, 212, 58-64) and Nagase et al. (H. Nagase et al., J. Biol. Chem., 1994, 269, 20952-20957). The method for each MMP inhibition test is shown below.
# 90 μL (29 ng) of human MMP-8 (Calbiochem #444229) was mixed with 10 μL of 10 mM APMA, and activated by reacting at 37° C. for 1 hour. 10 μL of the resultant enzyme solution was diluted to 90 μL with an assay buffer A. The mixture was added to 90 μL of a 20 μM fluorescent substrate (MOCAc-Pro-Leu-Gly-Leu-A2pr(Dnp)-Ala-Arg-NH2, Peptide Institute Inc., #3163-v) (SEQ ID NO: 3) prepared with an assay buffer B, and reacted at 37° C. for 5 hours. Enzyme activity was then determined by measuring with a fluorescence intensity meter (Labsystems, Fluoroskan Ascent) at an excitation wavelength of 320 nm and a measurement wavelength of 405 nm.
# (§2) From the enzyme activity in the presence or the absence of the test substance, the inhibition rate was determined, and the 50% inhibitiory concentration (IC50) of the test substance was calculated.
# human MMP-14 = target: T2, human MMP-14 (Homo sapiens, UniProt P50281); assay: MMP-14 inhibition test; format: biochemical; conditions: read-out: Inhibitory activity (IC50, nM) MMP-14
# T2 construct: purchased Calbiochem 475935
# Experimental: as §1
# 90 μL (1.9 ng) of human MMP-14 (Calbiochem #475935) prepared with an assay buffer A was added to 90 μL of a 20 μM fluorescent substrate (Dnp-Pro-Cha-Gly-Cys(Me)-His-Ala-Lys(Nma)-NH2) (SEQ ID NO: 2) prepared with an assay buffer B, and reacted at 37° C. for 5 hours. Enzyme activity was then determined by measuring with a fluorescence intensity meter (Labsystems, Fluoroskan Ascent) at an excitation wavelength of 355 nm and a measurement wavelength of 460 nm.
# as §2
# [1] = Solubility test in the 2nd fluid for the disintegration test of the Japanese Pharmacopoeia; format: physicochemical; conditions: pH 6.8, aqueous buffer, thermodynamic from solid; pH6.8, shaken for 2 hours
# Experimental: Test substances (10.0 mg) were correctly weighed, and methanol was added to adjust to 10 mL. The solution was diluted by 10 times to prepare a solution of […].
# In a centrifuge tube 5.0 mg of the test substance was weighed, added with 5.0 mL of the 2nd fluid for the disintegration test of the Japanese pharmacopoeia, supersonified for 3 minutes, and shaken for 2 hours thereafter. This solution was filitered with a membrane filter (0.2 μm), 500 μL the filtrate was measured, 500 μL of acetonitrile was added, and fully stirred to obtain the sample solution.
# To 250 mL of 0.2 mol/L potassium dihydrogenphosphate aqueous solution, 118 mL of 0.2 mol/L sodium hydroxide aqueous solution and water was added to adjust to 1000 mL.
# Using a high performance liquid chromatography, each of the sample solution for a calibration curve and sample solution for solubility measurement is measured twice to calculate an average area for each.
# Based on the average area obtained in the above mentioned method, using an equation below to calculate a solubility. Solubility in the 2nd fluid for the disintegration test of the Japanese pharmacopoeia(μg/mL)=((P×2)/S)×100
# S: Average area on the sample solution for a calibration curve
# P: Average area on the sample solution for solubility measurement
# [2] = test system: auricular oedema induced by TPA; assay: Inhibition test of auricular oedema induced by single application of TPA in mouse; format: in vivo, BALB/c mice
# Experimental: Auricular oedema was induced by applying 54 μmol/L TPA-acetone solution on both the inner and outer sides of the left ear of BALB/c mice (application volume of 54 μmol/L TPA-acetone solution is 10 μL for each side of the left ear (i.e. 1.08 nmol TPA/auricle)). For a non-induced group, acetone was similarly applied instead of the 54 μmol/L TPA-acetone solution. […] Auricle thickness was measured under ether anesthesia the day before TPA application and 6 hours after TPA application for evaluation of the auricular oedema inhibition effect of the test substance based on the increase in auricle thickness as an index.
# The auricular oedema inhibition rate (%) of the test substance was calculated based on the following formula using (A) the average value of the increase in auricular thickness of the group administered with the test substance, (B) the average value of the increase in auricular thickness of the non-induced group, and (C) the average value of the increase in auricular thickness of the control group. […]
# The auricular oedema inhibition rate (%) of etanercept was calculated based on the following formula using (B) the average value of the increase in auricular thickness of the non-induced group, (D) the average value of the increase in auricular thickness of the etanercept group, and (E) the average value of the increase in auricular thickness of the hIgG group. […]
# T1 sequence (P22894 101-467): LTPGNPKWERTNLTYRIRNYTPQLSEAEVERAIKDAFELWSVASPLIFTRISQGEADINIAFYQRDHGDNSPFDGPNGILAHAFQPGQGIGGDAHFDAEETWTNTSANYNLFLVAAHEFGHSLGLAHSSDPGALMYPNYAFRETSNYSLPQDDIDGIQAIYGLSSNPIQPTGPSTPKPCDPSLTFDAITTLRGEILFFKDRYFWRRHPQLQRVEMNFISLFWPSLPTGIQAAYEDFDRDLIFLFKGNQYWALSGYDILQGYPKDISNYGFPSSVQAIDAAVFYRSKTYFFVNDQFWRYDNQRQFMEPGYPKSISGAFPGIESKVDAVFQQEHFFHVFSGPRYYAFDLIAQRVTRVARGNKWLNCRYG
smiles,measurement,setting,value
"Cc1cccn(CC2(c3ccc(F)c(F)c3)NC(=O)NC2=O)c1=O (single isomer, unassigned; (+)) [(+)-5-(3,4-difluorophenyl)-5-[(3-methyl-2-oxopyridin-1(2H)-yl)methyl]imidazolidine-2,4-dione]",IC50,human MMP-8,> 10000 nM
same,IC50,human MMP-14,> 10000 nM
same,solubility at 2 h,[1],430 µg/mL
same,Auricular oedema inhibition rate (%),"[2]; BALB/c mice, topical 1 w/v % solution, 10 μL each side of left ear, 1 hour before TPA, auricle thickness 6 hours after TPA",62%
same,Etanercept ratio (inhibition rate of test substance / inhibition rate of etanercept),[2]; etanercept 1 mg/mouse intravenously as positive control,3.4
